US8791266B2, “Thyroid hormone β receptor agonist” (Mitsubishi Tanabe Pharma Corporation, priority 2009, dated 2014)

How the values were obtained:
[1] = biological target: T1, Human Thyroid Hormone Receptor β1 (TRβ1) (Homo sapiens, UniProt P10828); test: Transcription activation test of human thyroid hormone receptor β1 (luciferase reporter in 293T cells); assay type: cell-based; conditions: EC50 of transcription activation on TRβ1, 293T cells, luciferase activity after 24 hr; read-out: TRβ
T1 construct: expressed in transfected cells; host or cells: 293T cells
T1 sequence (P10828 1-461): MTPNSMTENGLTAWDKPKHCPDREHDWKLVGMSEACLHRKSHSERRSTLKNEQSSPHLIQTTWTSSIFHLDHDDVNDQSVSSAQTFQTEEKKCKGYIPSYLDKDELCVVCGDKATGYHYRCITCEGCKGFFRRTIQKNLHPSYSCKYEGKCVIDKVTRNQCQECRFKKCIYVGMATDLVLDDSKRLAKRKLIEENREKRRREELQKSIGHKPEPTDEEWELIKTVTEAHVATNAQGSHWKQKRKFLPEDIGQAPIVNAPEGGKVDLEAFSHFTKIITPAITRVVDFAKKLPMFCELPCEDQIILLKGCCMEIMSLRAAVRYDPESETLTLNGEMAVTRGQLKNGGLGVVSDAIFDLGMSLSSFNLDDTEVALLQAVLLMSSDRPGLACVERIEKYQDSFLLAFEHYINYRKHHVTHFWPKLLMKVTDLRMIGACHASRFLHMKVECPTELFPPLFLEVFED
Text: (§1) Transcription Activation Test of Human Thyroid Hormone Receptors α1 (TRα1) and β1 (TRβ1)
(§2) pcDNA3.1 vector (manufactured by Invitrogen) that expresses TRα1 or β1 cloned from human liver-derived cells, and firefly luciferase expression vector pDR4-LuC (manufactured by Stratagene) having a thyroid hormone response sequence to be a reporter were transfected into 293T cells cultured in Dulbecco's modified Eagle medium (DMEM) containing 10% of activated carbon/dextran-treated fetal bovine serum (FBS) by using Lipofectamine2000 (manufactured by Invitrogen). After 16 hr, the cells were plated again in a 96 well plate, and the medium was exchanged with DMEM containing 0.1% activated carbon/dextran-treated FBS. After 3 more hr, a compound diluted with dimethyl sulfoxide solution was added, and the luciferase activity after 24 hr was measured.
(§3) As a positive control, 3,3′,5-triiodo-L-thyronine (T3), which is a biological ligand, was used. The transcription activation action of the compound on TRα1 and TRβ1 was shown by each EC50 value and the maximum luciferase activity value relative to the maximum luciferase activity value of T3 as 100.

[2] = biological target: T2, Human Thyroid Hormone Receptor α1 (TRα1) (Homo sapiens, UniProt P10827); test: Transcription activation test of human thyroid hormone receptor α1 (luciferase reporter in 293T cells); assay type: cell-based; conditions: ratio TRα/TRβ of the transcription activation EC50 values
T2 construct: expressed in transfected cells; host or cells: 293T cells
T2 sequence (P10827 1-410 isoform P10827-2): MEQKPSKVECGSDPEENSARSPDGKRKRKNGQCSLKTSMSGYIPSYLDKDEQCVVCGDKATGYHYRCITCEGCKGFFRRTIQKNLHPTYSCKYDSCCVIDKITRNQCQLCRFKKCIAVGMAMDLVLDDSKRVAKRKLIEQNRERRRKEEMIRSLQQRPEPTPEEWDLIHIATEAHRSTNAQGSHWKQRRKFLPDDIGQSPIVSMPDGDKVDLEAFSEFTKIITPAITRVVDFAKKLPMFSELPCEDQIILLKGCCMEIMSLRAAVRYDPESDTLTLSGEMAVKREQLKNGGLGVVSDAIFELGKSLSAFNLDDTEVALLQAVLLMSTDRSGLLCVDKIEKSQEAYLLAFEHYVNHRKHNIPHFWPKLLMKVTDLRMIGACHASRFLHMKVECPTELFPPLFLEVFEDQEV
Text: as §1, §2, §3

| Structure (SMILES) | EC50 [1] [nM] | selectivity (TRα/TRβ) [2] |
| --- | --- | --- |
| Cc1cc(OCC(=O)O)c(C)c(C)c1Cc1ccc(O)c(C2CCCC2)n1 [Example 5, {4-[(6-cyclopentyl-5-hydroxypyridin-2-yl)methyl]-2,3,5-trimethylphenoxy}acetic acid] | 0.5 | A (5<(TRα/TRβ)) |
| Cc1cc(NC(=O)C(=O)O)cc(C)c1Cc1ccc(O)c(C2CCCCC2)n1 [Example 19, ({4-[(6-cyclohexyl-5-hydroxypyridin-2-yl)methyl]-3,5-dimethylphenyl}amino)(oxo)acetic acid] | 5 | B (2<(TRα/TRβ)<5) |
| Cc1cc(OCC(=O)O)c(C#N)c(C)c1Cc1ccc(O)c(C2CCCCC2)n1 [Example 44, {2-cyano-4-[(6-cyclohexyl-5-hydroxypyridin-2-yl)methyl]-3,5-dimethylphenoxy}acetic acid] | 200 | B (2<(TRα/TRβ)<5) |
| Cc1cc(OCc2noc(=O)[nH]2)c(C)c(C)c1Cc1ccc(O)c(C2CCCCO2)n1 (centres unmarked) [Example 35, 3-[(4-{[5-hydroxy-6-(tetrahydro-2H-pyran-2-yl)pyridin-2-yl]methyl}-2,3,5-trimethylphenoxy)methyl]-1,2,4-oxadiazol-5(4H)-one] | 9 | B (2<(TRα/TRβ)<5) |
| Cc1cc(OC(C)C(=O)O)cc(C)c1Cc1ccc(O)c(C2CCCCC2)n1 (centres unmarked) [Example 14, 2-{4-[(6-cyclohexyl-5-hydroxypyridin-2-yl)methyl]-3,5-dimethylphenoxy}propanoic acid] | 10 | B (2<(TRα/TRβ)<5) |
| Cc1cc(OCC(=O)O)c(C)c(C)c1Cc1ccc(O)c(C2CCCCCC2)n1 [Example 92, {4-[(6-cycloheptyl-5-hydroxypyridin-2-yl)methyl]-2,3,5-trimethylphenoxy}acetic acid] | 1 | A (5<(TRα/TRβ)) |
| COc1c(OCc2noc(=O)[nH]2)cc(C)c(Cc2ccc(O)c(C3CCCCC3)n2)c1C [Example 107, 3-({4-[(6-cyclohexyl-5-hydroxypyridin-2-yl)methyl]-2-methoxy-3,5-dimethylphenoxy}methyl)-1,2,4-oxadiazol-5(4H)-one] | 10 | C (2>(TRα/TRβ)) |
| Cc1cc(OCc2noc(=O)[nH]2)cc(C)c1Cc1ccc(O)c(-c2ccc3c(c2)CCCC3)n1 [Example 30, 3-[(4-{[5-hydroxy-6-(5,6,7,8-tetrahydronaphthalen-2-yl)pyridin-2-yl]methyl}-3,5-dimethylphenoxy)methyl]-1,2,4-oxadiazol-5(4H)-one] | 2 | A (5<(TRα/TRβ)) |
| O=C(O)COc1cc(Br)c(Cc2ccc(O)c(-c3ccccc3)n2)c(Br)c1F [Example 256, [3,5-dibromo-2-fluoro-4-(5-hydroxy-6-phenyl-pyridin-2-ylmethyl)-phenoxy]acetic acid] | 3 | A (5<(TRα/TRβ)) |
| Cc1cc(OCC(=O)O)c(C)c(C)c1Oc1ccc(O)c(C(C)C)n1 [Example 9, {4-[(5-hydroxy-6-isopropylpyridin-2-yl)oxy]-2,3,5-trimethylphenoxy}acetic acid] | 7 | C (2>(TRα/TRβ)) |
| Cc1cc(C(=O)NCC(=O)O)cc(C)c1Cc1ccc(O)c(C2CCCCC2)n1 [Example 64, N-{4-[(6-cyclohexyl-5-hydroxypyridin-2-yl)methyl]-3,5-dimethylbenzoyl}glycine] | 80 | B (2<(TRα/TRβ)<5) |
| Cc1cc(OCC(=O)O)c(C)c(C)c1Cc1ccc(O)c(C(=O)N(C)CCc2ccccc2)n1 [Example 80] | 100 | B (2<(TRα/TRβ)<5) |
| Cc1cc(/C=C/C(=O)O)c(C)c(C)c1Cc1ccc(O)c(C2CCCCC2)n1 [Example 25, (2E)-3-{4-[(6-cyclohexyl-5-hydroxypyridin-2-yl)methyl]-2,3,5-trimethylphenyl}acrylic acid] | 1 | C (2>(TRα/TRβ)) |
